For test [1], the system named is HT-29. The test is described as follows: Antiproliferative activity against human HT-29 cells assessed as reduction in cell growth incubated for 48 hrs by MTT assay. Type of test: functional, cell-based. The note with it: HT-29, 48 h. On the technique in general: Tetrazolium dyes change colour on reduction, which living cells bring about.
The next test deals with A549. The test is described as follows: Antiproliferative activity against human A549 cells assessed as reduction in cell growth incubated for 48 hrs by MTT assay. Type of test: functional, cell-based. The note with it: A549, 48 h.
The target in test [2] is Vascular endothelial growth factor receptor 2 (Homo sapiens) (UniProt P35968). The test is described as follows: Inhibition of VEGFR2 in human HT-29 cells assessed as reduction in VEGFR2 phosphorylation incubated for 48 hrs by Western blot analysis. The note with it: dose 1-10 µM. Type of test: cell-based. Background: A western blot detects proteins with antibodies after separation by electrophoresis.
Vascular endothelial growth factor receptor 2 (Homo sapiens), sequence (P35968 whole entry): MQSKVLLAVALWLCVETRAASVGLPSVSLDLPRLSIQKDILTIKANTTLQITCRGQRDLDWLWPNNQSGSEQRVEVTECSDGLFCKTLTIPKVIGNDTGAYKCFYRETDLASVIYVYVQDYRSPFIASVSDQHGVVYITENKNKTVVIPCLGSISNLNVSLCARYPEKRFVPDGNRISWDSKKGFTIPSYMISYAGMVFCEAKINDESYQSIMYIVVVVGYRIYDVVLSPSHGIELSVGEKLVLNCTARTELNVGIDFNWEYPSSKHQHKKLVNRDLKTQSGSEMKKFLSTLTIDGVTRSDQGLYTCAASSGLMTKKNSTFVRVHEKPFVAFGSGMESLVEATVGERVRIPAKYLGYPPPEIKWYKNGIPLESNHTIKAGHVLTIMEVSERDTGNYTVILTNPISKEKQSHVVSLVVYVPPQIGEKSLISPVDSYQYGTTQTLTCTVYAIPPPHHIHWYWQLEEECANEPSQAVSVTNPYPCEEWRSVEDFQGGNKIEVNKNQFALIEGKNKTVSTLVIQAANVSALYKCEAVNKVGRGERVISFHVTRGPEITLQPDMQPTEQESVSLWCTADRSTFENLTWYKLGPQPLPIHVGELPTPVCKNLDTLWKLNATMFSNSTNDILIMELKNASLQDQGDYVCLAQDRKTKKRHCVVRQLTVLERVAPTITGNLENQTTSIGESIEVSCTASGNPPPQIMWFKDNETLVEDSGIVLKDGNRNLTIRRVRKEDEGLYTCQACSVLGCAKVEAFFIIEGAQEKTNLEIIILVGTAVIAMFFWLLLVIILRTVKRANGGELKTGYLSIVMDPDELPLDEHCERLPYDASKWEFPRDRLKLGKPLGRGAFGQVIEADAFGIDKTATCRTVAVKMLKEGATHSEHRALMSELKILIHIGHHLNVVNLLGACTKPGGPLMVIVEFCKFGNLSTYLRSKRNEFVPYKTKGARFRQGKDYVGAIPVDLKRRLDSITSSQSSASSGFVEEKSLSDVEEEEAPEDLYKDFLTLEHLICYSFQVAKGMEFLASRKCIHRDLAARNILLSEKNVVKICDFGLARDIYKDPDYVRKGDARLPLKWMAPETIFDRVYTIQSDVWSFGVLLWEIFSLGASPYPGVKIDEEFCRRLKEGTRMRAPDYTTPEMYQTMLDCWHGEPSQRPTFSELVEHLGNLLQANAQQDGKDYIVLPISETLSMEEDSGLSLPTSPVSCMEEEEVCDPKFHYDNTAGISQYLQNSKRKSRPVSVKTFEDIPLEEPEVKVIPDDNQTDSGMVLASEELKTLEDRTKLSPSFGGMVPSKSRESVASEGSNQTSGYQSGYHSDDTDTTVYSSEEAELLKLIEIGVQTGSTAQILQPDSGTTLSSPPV

The target is the same in test [3]. Put plainly: Inhibition of VEGFR2 in human HT-29 cells assessed as reduction in c-Raf expression incubated for 48 hrs by Western blot analysis. The format is cell-based. The note with it: dose 1-10 µM.
The target is the same in test [4]. The test is described as follows: Inhibition of VEGFR2 in human HT-29 cells assessed as reduction in ERK1/2 expression incubated for 48 hrs by Western blot analysis. Type of test: cell-based. The note with it: dose 1-10 µM.
For test [5] the target is unchanged. Put plainly: Inhibition of VEGFR2 in human HT-29 cells assessed as reduction in MEK expression incubated for 48 hrs by Western blot analysis. The format is cell-based. To be noted: dose 1-10 µM.
Test [6] shares this target. Put plainly: Inhibition of VEGFR2 in human HT-29 cells assessed as reduction in ERK1/2 phosphorylation incubated for 48 hrs by Western blot analysis. Type of test: cell-based. The note with it: dose 1-10 µM.
In test [7] the test system is HT-29. The test is described as follows: Induction of apoptosis in human HT-29 cells assessed as early apoptotic cells incubated for 48 hrs by annexin V-FITC and PI staining based flow cytometry analysis. Type of test: functional, cell-based. To be noted: dose 1-10 µM. A general note: A flow cytometer gives signals particle by particle.
Test [8] concerns HT-29. The test is described as follows: Induction of apoptosis in human HT-29 cells assessed as late apoptotic cells incubated for 48 hrs by annexin V-FITC and PI staining based flow cytometry analysis. The format is functional, cell-based. To be noted: dose 1-10 µM.
In test [9] the test system is HT-29. The test is described as follows: Induction of apoptosis in human HT-29 cells assessed as viable cells at 1 uM incubated for 48 hrs by annexin V-FITC and PI staining based flow cytometry analysis (reference value: 88.2 %). Type of test: functional. The note with it: read-out: Activity.
In test [10] the test system is HT-29. Put plainly: Induction of apoptosis in human HT-29 cells assessed as early apoptotic cells at 1 uM incubated for 48 hrs by annexin V-FITC and PI staining based flow cytometry analysis (reference value: 1.01 %). The format is functional.
Test [11] has as its system HT-29. The test is described as follows: Induction of apoptosis in human HT-29 cells assessed as late apoptotic cells at 1 uM incubated for 48 hrs by annexin V-FITC and PI staining based flow cytometry analysis (reference value: 1.08 %). The format is functional.
Test [12] has as its system HT-29. The test is described as follows: Induction of apoptosis in human HT-29 cells assessed as necrotic cells at 1 uM incubated for 48 hrs by annexin V-FITC and PI staining based flow cytometry analysis (reference value: 9.68 %). Type of test: functional.
For test [13], the system named is HT-29. The test is described as follows: Induction of apoptosis in human HT-29 cells assessed as viable cells at 5 uM incubated for 48 hrs by annexin V-FITC and PI staining based flow cytometry analysis (reference value: 88.2 %). The format is functional. To be noted: read-out: Activity.
Test [14] concerns HT-29. The test is described as follows: Induction of apoptosis in human HT-29 cells assessed as early apoptotic cells at 5 uM incubated for 48 hrs by annexin V-FITC and PI staining based flow cytometry analysis (reference value: 1.01 %). Type of test: functional.
In test [15] the test system is HT-29. The test is described as follows: Induction of apoptosis in human HT-29 cells assessed as late apoptotic cells at 5 uM incubated for 48 hrs by annexin V-FITC and PI staining based flow cytometry analysis (reference value: 1.08 %). Type of test: functional.
Test [16] has as its system HT-29. Put plainly: Induction of apoptosis in human HT-29 cells assessed as necrotic cells at 5 uM incubated for 48 hrs by annexin V-FITC and PI staining based flow cytometry analysis (reference value: 9.68 %). The format is functional.
Test [17] deals with HT-29. Put plainly: Induction of apoptosis in human HT-29 cells assessed as viable cells at 10 uM incubated for 48 hrs by annexin V-FITC and PI staining based flow cytometry analysis (reference value: 88.2 %). The format is functional. The note with it: read-out: Activity.
For test [18], the system named is HT-29. The test is described as follows: Induction of apoptosis in human HT-29 cells assessed as early apoptotic cells at 10 uM incubated for 48 hrs by annexin V-FITC and PI staining based flow cytometry analysis (reference value: 1.01 %). The format is functional.
In test [19] the test system is HT-29. Put plainly: Induction of apoptosis in human HT-29 cells assessed as late apoptotic cells at 10 uM incubated for 48 hrs by annexin V-FITC and PI staining based flow cytometry analysis (reference value: 1.08 %). The format is functional.
Test [20] has as its system HT-29. The test is described as follows: Induction of apoptosis in human HT-29 cells assessed as necrotic cells at 10 uM incubated for 48 hrs by annexin V-FITC and PI staining based flow cytometry analysis (reference value: 9.68 %). Type of test: functional.
The test system of test [21] is HT-29. The test is described as follows: Induction of apoptosis in human HT-29 cells assessed as increase in caspase3 expression incubated for 48 hrs by Western blot analysis. The format is functional, cell-based. To be noted: dose 1-10 µM.
Test [22] relates to HT-29. Put plainly: Induction of apoptosis in human HT-29 cells assessed as upregulation of Bax expression at 1 to 10 uM incubated for 48 hrs by Western blot analysis. To be noted: dose 1-10 µM. Type of test: functional, cell-based.
Test [23] has as its system HT-29. The test is described as follows: Induction of apoptosis in human HT-29 cells assessed as downregulation of Bcl2 expression at 1 to 10 uM incubated for 48 hrs by Western blot analysis. The note with it: dose 1-10 µM. Type of test: functional, cell-based.
The test system of test [24] is HT-29. The test is described as follows: Induction of apoptosis in human HT-29 cells assessed as increase in ratio of Bax/Bcl2 at 1 to 10 uM incubated for 48 hrs by Western blot analysis. The format is functional, cell-based. The note with it: dose 1-10 µM.
The test system of test [25] is HT-29. Put plainly: Induction of cell cycle arrest in human HT-29 cells assessed as G1 phase accumulation at 1 uM incubated for 48 hrs by PI staining based flow cytometry analysis (reference value: 56.39 %). Type of test: functional.
Test [26] concerns HT-29. The test is described as follows: Induction of cell cycle arrest in human HT-29 cells assessed as S phase accumulation at 1 uM incubated for 48 hrs by PI staining based flow cytometry analysis (reference value: 36.98 %). The format is functional.
Test [27] deals with HT-29. Put plainly: Induction of cell cycle arrest in human HT-29 cells assessed as G2 phase accumulation at 1 uM incubated for 48 hrs by PI staining based flow cytometry analysis (reference value: 11.7 %). Type of test: functional.
The subject of test [28] is HT-29. The test is described as follows: Induction of cell cycle arrest in human HT-29 cells assessed as subG1 phase accumulation at 1 uM incubated for 48 hrs by PI staining based flow cytometry analysis (reference value: 0.06 %). The format is functional.
For test [29], the system named is HT-29. The test is described as follows: Induction of cell cycle arrest in human HT-29 cells assessed as G1 phase accumulation at 5 uM incubated for 48 hrs by PI staining based flow cytometry analysis (reference value: 56.39 %). The format is functional.
The test system of test [30] is HT-29. The test is described as follows: Induction of cell cycle arrest in human HT-29 cells assessed as S phase accumulation at 5 uM incubated for 48 hrs by PI staining based flow cytometry analysis (reference value: 36.98 %). The format is functional.
In test [31] the test system is HT-29. Put plainly: Induction of cell cycle arrest in human HT-29 cells assessed as G2 phase accumulation at 5 uM incubated for 48 hrs by PI staining based flow cytometry analysis (reference value: 11.7 %). Type of test: functional.
Test [32] deals with HT-29. Put plainly: Induction of cell cycle arrest in human HT-29 cells assessed as subG1 phase accumulation at 5 uM incubated for 48 hrs by PI staining based flow cytometry analysis (reference value: 0.06 %). The format is functional.
The test system of test [33] is HT-29. Put plainly: Induction of cell cycle arrest in human HT-29 cells assessed as G1 phase accumulation at 10 uM incubated for 48 hrs by PI staining based flow cytometry analysis (reference value: 56.39 %). The format is functional.
Test [34] deals with HT-29. Put plainly: Induction of cell cycle arrest in human HT-29 cells assessed as S phase accumulation at 10 uM incubated for 48 hrs by PI staining based flow cytometry analysis (reference value: 36.98 %). Type of test: functional.
The test system of test [35] is HT-29. Put plainly: Induction of cell cycle arrest in human HT-29 cells assessed as G2 phase accumulation at 10 uM incubated for 48 hrs by PI staining based flow cytometry analysis (reference value: 11.7 %). The format is functional.
Test [36] concerns HT-29. The test is described as follows: Induction of cell cycle arrest in human HT-29 cells assessed as subG1 phase accumulation at 10 uM incubated for 48 hrs by PI staining based flow cytometry analysis (reference value: 0.06 %). Type of test: functional.
For test [37], the system named is HT-29. The test is described as follows: Induction of cell cycle arrest in human HT-29 cells assessed as reduction in cyclin D1 level incubated for 48 hrs by Western blot analysis. The format is functional, cell-based. To be noted: dose 1-10 µM.
Test [38] relates to HT-29. The test is described as follows: Induction of cell cycle arrest in human HT-29 cells assessed as reduction in CDK4 level incubated for 48 hrs by Western blot analysis. The format is functional, cell-based. To be noted: dose 1-10 µM.
Test [39] has as its system HT-29. Put plainly: Induction of ROS accumulation in human HT-29 cells at 1 to 10 uM incubated for 12 hrs by […] and DAPI staining based luminescence spectrometer. The format is functional, cell-based. The note with it: dose 1-10 µM.

Calls of active or inactive are those of the source. No cut-off for these calls is given here.

The IC50 is the concentration that inhibits the measured activity by half. `Cc1ccc(NC(=O)Nc2ccc(OC(=O)c3ccccc3)cc2)cc1`: the IC50 with HT-29 [1] was 104 µM; in the test on A549, 47.7 µM.
Taken in the same sequence, the figures for `O=C(Nc1ccc(Cl)cc1)Nc1ccc(OC(=O)c2ccccc2)cc1` were 56 µM and 24.7 µM.
In the case of `O=C(Nc1ccc(F)cc1)Nc1ccc(OC(=O)c2ccccc2)cc1`, the IC50 with HT-29 [1] came out at 94.4 µM; in the test with A549, 29.7 µM.
The like results for `Cc1ccc(C(=O)Oc2ccc(NC(=O)Nc3ccccc3)cc2)cc1` were, in that order, 19.9 µM and 18.9 µM.
Taken in the same sequence, the figures for `O=C(Nc1ccccc1)Nc1ccc(NC(=O)c2ccccc2)cc1` were 12.7 µM and 23.9 µM.
On to `COc1ccc(C(=O)Oc2ccc(NC(=O)Nc3ccccc3)cc2)cc1`, for which the IC50 is 175 µM in the test on HT-29 [1] and 60.2 µM in the test with A549.
Taken in the same sequence, the figures for `O=C(Nc1ccccc1)Nc1ccc(OC(=O)c2ccc([N+](=O)[O-])cc2)cc1` were 185 µM and 120 µM.
The like results for `CC(=O)c1cccc(NC(=O)Nc2ccc(OC(=O)c3cc4cc([N+](=O)[O-])ccc4s3)cc2)c1` were, in that order, 457 µM and 61.5 µM.
Regarding `O=C(Cc1ccccc1)Nc1ccc(NC(=O)Nc2ccccc2)cc1`, the IC50 came to 3.38 µM in the test on HT-29 [1] and 0.63 µM with A549. In addition, the inhibition entry in test [2], in test [3], in [4], in test [5] and in test [6] was “Dose-dependent effect” each time. In addition, the Activity result with HT-29 [7] was “Dose-dependent effect”; with HT-29 [8], “Dose-dependent effect”; in the test with HT-29 [10], 1.46%; with HT-29 [11] it was 1.93%; in the test with HT-29 [12] it was 14.2%; with HT-29 [14], 3.09%. Moreover, the Activity in the test with HT-29 [15] was 2.18%; in the test on HT-29 [16], 7.95%; with HT-29 [18] it was 2.22%; with HT-29 [19], 5.46%; with HT-29 [20] it was 6.75%; in the test on HT-29 [21], “Dose-dependent effect”. Also, the Activity in the test with HT-29 [25] is given as 61.96%; with HT-29 [26] it was 29.67%; with HT-29 [27], 11.64%; in the test on HT-29 [28], 0.43%; in the test with HT-29 [29], 63.44%; in the test on HT-29 [30] it was 18.48%. Further, the Activity was determined as 18.18% in the test with HT-29 [31]; 7.45% in the test with HT-29 [32]; 60.9% in the test on HT-29 [33]; 15.84% in the test with HT-29 [34]; 27.49% in the test on HT-29 [35]; 3.45% with HT-29 [36]. In addition, the Activity result in the test on HT-29 [37] and with HT-29 [38] was “Dose-dependent effect” each time. Further, the viability at 1 µM with HT-29 [9] was found to be 82.4%. For the same compound, in the test with HT-29 [13], the viability at 5 µM was determined as 86.8%. Moreover, in the test with HT-29 [17], the viability at 10 µM came to 85.6%. The result with HT-29 [22], in the test on HT-29 [23], in the test on HT-29 [24] and with HT-29 [39] was Active.

Source of the values: ChEMBL document CHEMBL4765379, “Synthesis and biological evaluation of diaryl urea derivatives designed as potential anticarcinoma agents using de novo structure-based lead optimization approach” (Eur J Med Chem, 2020).
